“Also recorded” adds a separate entry of the source.
Legend:
Format in all cases: in vivo
Fmr1 KO2 mice [1] = experiment: Open field (hyperactivity); details: 5 mg/kg by subcutaneous osmotic minipump, 15 days chronic treatment, 3 min observation
Source text: (§1) Fmr1 knockout 2 (Fmr1 KO2) mice were generated by deletion of the promoter and first exon of Fmr1. The Fmr1 KO2 it is both, protein and mRNA null. In this study we used Fmr1 KO2 and wild-type (WT) littermates generated on a C57BL/6J background and repeatedly backcrossed onto a C57BL/6J background for more than eight generations.
There were four treatment groups per compound in the study with 10 male mice used per treatment group (all at 8 weeks of age): Group 1: Fmr1 KO2 mice treated with vehicle (Fmr1 KO2-V), Group 2: wild-type littermate mice treated with vehicle (WT-V), Group 3: Fmr1 KO2 mice treated with sulindac (Fmr1 KO-Sulindac) and Group 4: wild-type littermate mice treated with sulindac (WT-Sulindac) […]
(§2) For experiments, all mice were tested once in the same apparatus. […] We assessed weight loss, fur loss, walking, eyes open, eye discharges and general behavior.
The open-field apparatus was used to test hyperactivity. […] The number of squares entered by the whole body (locomotor activity) was counted. The movement of the mouse around the field was recorded with a video tracking device for 3 min (version NT4.0, Viewpoint).
(§3) Data were analyzed by two-way analysis of variance (ANOVA) followed by post-test comparisons where appropriate using Tukey's Multiple Comparison Test. […]

Fmr1 KO2 mice [2] = experiment: Nesting; details: 5 mg/kg by subcutaneous osmotic minipump, 15 days, listed as sulindac
Source text: as §1
(§4) There were four treatment groups per compound in the study with 10 male mice used per treatment group (all at 8 weeks of age): Group 1: Fmr1 KO2 mice treated with vehicle (Fmr1 KO2-V), Group 2: wild-type littermate mice treated with vehicle (WT-V), Group 3: Fmr1 KO2 mice treated with sulindac (Fmr1 KO-Sulindac) and Group 4: wild-type littermate mice treated with sulindac (WT-Sulindac)
(§5) Sulindac: 5 mg/kg by osmotic minipumps (ALZET Osmotic Pumps Cupertino, Calif., USA) implanted subcutaneously for 15 days delivery.
as §2
The test was performed in individual cages. […] Mice were placed individually into the nesting cages 1 hr. before the dark phase, and the results were assessed the next morning. Nest building was scored on a 5 point scale. […]
as §3

Fmr1 KO2 mice [3] = experiment: Contextual fear conditioning; details: 5 mg/kg by subcutaneous osmotic minipump, 15 days, KO not different from WT
Source text: as §1, §4, §5
For experiments, all mice were tested once in the same apparatus. Prior to testing, mice were placed in the apparatus for some minutes before the experiment. The apparatus was cleaned with moist and dry tissues before testing each mouse. […] We assessed weight loss, fur loss, walking, eyes open, eye discharges and general behavior. […]
as §3

Fmr1 KO2 mice [4] = experiment: Three-chambered sociability task (social interaction); details: 5 mg/kg by subcutaneous osmotic minipump, 15 days
Source text: as §1, §4, §5, §2
In the three-chambered sociability task, a subject mouse was evaluated for its exploration of a novel social stimulus (novel mouse). […] The time spent exploring the novel mice was scored as exploration ratio.
as §3

In the case of `CC1=C(CC(=O)O)c2cc(F)ccc2/C1=C\c1ccc([S+](C)[O-])cc1` (stereo not drawn) [Sulindac, (Z)-5-fluoro-2-methyl-1-[[p-(methylsulfinyl)phenyl]methylene]-1H-indene-3-acetic acid], the “hyperactivity in open field (locomotor activity, number of squares entered)” value (Fmr1 KO2 mice [1]) is reported as “fully rescuing; also recorded: normalizes hyperactivity”, the “nesting behavior (nest building score, 5 point scale)” value (Fmr1 KO2 mice [2]) is reported as “fully rescuing; also recorded: normalization in nesting behavior” and the “freezing in contextual memory test (learning and memory)” value (Fmr1 KO2 mice [3]; p=0.3968) is reported as “ameliorates the Fmr1 KO deficit in learning and memory”. For the same molecule, the “freezing in contextual memory test (learning and memory)” value (Fmr1 KO2 mice [3]; p=0.3968, listed as sulindac) was “partially rescuing”, the “sociability (exploration index of the novel mouse)” value (Fmr1 KO2 mice [4]) was “partially improved such impairment” and the “sociability (exploration index of the novel mouse)” value (Fmr1 KO2 mice [4]; listed as sulindac) was “partially rescuing”.
